For this assay, the system named is RS411 cells. The assay can be described thus: Cell Viability CTG Assay (CellTiter Glo) in RS411 cells. The class given is cell-based. The conditions noted are these: Homo sapiens. Put shortly:
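Read-out was CellTiter Glo luminescence, taken after 10 min at RT, following 1-4 days of incubation at 37 °C, 5% CO2. Cells were plated at 1000 per well with an 11-point, 3-fold series starting at 10 μM final in 0.2% DMSO. IC50 values are given as letter-code ranges.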

As usually defined, the IC50 is the point on the concentration scale where inhibition reaches its midpoint. A high value points to lower potency. Turning to `Cn1c(=O)n(C2CCC(=O)NC2=O)c2ccc(C#CC3CN(C(=O)[C@H]4C[C@H](NC(=O)[C@@H]5NC6(CCC(C)(C)CC6)[C@@]6(C(=O)Nc7cc(Cl)ccc76)[C@H]5c5cccc(Cl)c5F)C4)C3)cc21` (some centres unmarked) [I-100], the IC50 (RS4-11, 24 h, duration 1 day) is < 0.05 µM. Consider `Cn1c(=O)n(C2CCC(=O)NC2=O)c2cccc(C#CCOC3CCN(C(=O)c4ccc(NC(=O)[C@@H]5NC6(CCCCC6)[C@@]6(C(=O)Nc7cc(Cl)ccc76)[C@H]5c5cccc(Cl)c5F)cc4)CC3)c21` (stereo partly drawn) [I-43, (3′R,4'S,5′R)-6″-chloro-4′-(3-chloro-2-fluorophenyl)-N-(4-(4-((3-(1-(2,6-dioxopiperidin-3-yl)-3-methyl-2-oxo-2,3-dihydro-1H-benzo[d]imidazol-4-yl)prop-2-yn-1-yl)oxy)piperidine-1-carbonyl)phenyl)-2″-oxodispiro[cyclohexane-1,2′-pyrrolidine-3′,3″-indoline]-5′-carboxamide], for which, where the note is “RS4-11, 24 h, duration 1 day”, the half-inhibitory concentration (IC50) was < 0.05 µM.

As for `Cn1c(=O)n(C2CCC(=O)NC2=O)c2ccc(C#CCCCCCCCCN3[C@@H](C(=O)Nc4ccc(C(=O)O)cc4)[C@H](c4cccc(Cl)c4F)[C@]4(C(=O)Nc5cc(Cl)ccc54)C34CCCCC4)cc21` (stereo partly drawn) [I-214, 4-((3′R,4'S,5′R)-6″-chloro-4′-(3-chloro-2-fluorophenyl)-1′-(10-(1-(2,6-dioxopiperidin-3-yl)-3-methyl-2-oxo-2,3-dihydro-1H-benzo[d]imidazol-5-yl)dec-9-yn-1-yl)-2″-oxodispiro[cyclohexane-1,2′-pyrrolidine-3′,3″-indoline]-5′-carboxamido)benzoic acid], the half-maximal inhibitory concentration (IC50) (RS4-11, 24 h, duration 1 day) lay in the range of 0.05 to 0.1 µM. Same read-out and setting: to `Cn1c(=O)n(C2CCC(=O)NC2=O)c2ccc(C#CCCCNC(=O)[C@H]3CC[C@H](N(C)C(=O)[C@@H]4NC5(CCCCC5)[C@@]5(C(=O)Nc6cc(Cl)ccc65)[C@H]4c4cccc(Cl)c4F)CC3)cc21` (some centres unmarked) [I-120] belongs > 1 µM; to `CN(CCCOCCCc1cccc2c1n(C)c(=O)n2C1CCC(=O)NC1=O)C(=O)c1ccc(NC(=O)[C@@H]2NC3(CCCCC3)[C@@]3(C(=O)Nc4cc(Cl)ccc43)[C@H]2c2cccc(Cl)c2F)cc1` (some centres unmarked) [I-52], < 0.05 µM.

`Cn1c(=O)n(C2CCC(=O)NC2=O)c2ccc(CCCN3CCN(Cc4ccc(NC(=O)[C@@H]5NC6(CCCCC6)[C@@]6(C(=O)Nc7cc(Cl)ccc76)[C@H]5c5cccc(Cl)c5F)cc4)CC3)cc21` (some centres unmarked) [I-121]: the 50% inhibitory concentration (IC50) (RS4-11, 24 h, duration 1 day) is < 0.05 µM.

With `Cn1c(=O)n(C2CCC(=O)NC2=O)c2ccc(C#CC3CCN(C(=O)C45CCC(NC(=O)[C@@H]6NC7(CCCCC7)[C@@]7(C(=O)Nc8cc(Cl)ccc87)[C@H]6c6cccc(Cl)c6F)(CC4)CC5)CC3)cc21` (some centres unmarked) [I-75], where the note is “RS4-11, 24 h, duration 1 day”, the IC50 was < 0.05 µM. Regarding `C#CCCCCCCCN1C(=O)[C@@]2(c3ccc(Cl)cc31)[C@@H](c1cccc(Cl)c1F)[C@H](C(=O)O)N(C)C21CCCCC1` [I-129, (3′R,4'S,5′R)-6″-chloro-4′-(3-chloro-2-fluorophenyl)-1′-methyl-1″-(non-8-yn-1-yl)-2″-oxodispiro[cyclohexane-1,2′-pyrrolidine-3′,3″-indoline]-5′-carboxylic acid], where the note is “RS4-11, 24 h, duration 1 day”, the 50% inhibitory concentration (IC50) is > 1 µM. Same read-out and setting: with `Cn1c(=O)n(C2CCC(=O)NC2=O)c2ccc(C3CCN(C[C@H]4CC[C@H](NC(=O)[C@@H]5NC6(CCCCC6)[C@@]6(C(=O)Nc7cc(Cl)ccc76)[C@H]5c5cccc(Cl)c5F)CC4)CC3)cc21` (some centres unmarked) [I-186] the figure was < 0.05 µM; with `Cn1c(=O)n(C2CCC(=O)NC2=O)c2ccc(C#CCCN3CCN(C[C@H]4CC[C@H](NC(=O)[C@@H]5NC6(CCC(C)(C)CC6)[C@@]6(C(=O)Nc7cc(Cl)ccc76)[C@H]5c5ccnc(Cl)c5F)CC4)CC3)cc21` (some centres unmarked) [I-198], < 0.05 µM.

On to `COc1cc2c(cc1OC(C)C)C(c1ccc(Cl)cc1)N(c1ccc(N(C)CC3CCN(CCCCCCc4cccc5c4n(C)c(=O)n5C4CCC(=O)NC4=O)CC3)cc1)C(=O)C2` (centres unmarked) [I-84, 3-[4-[6-[4-[[4-[1-(4-Chlorophenyl)-7-isopropoxy-6-methoxy-3-oxo-1,4-dihydroisoquinolin-2-yl]-N-methylanilino]methyl]-1-piperidyl]hexyl]-3-methyl-2-oxo-benzimidazol-1-yl]piperidine-2,6-dione], for which the IC50 (RS4-11, 24 h, duration 1 day) is < 0.05 µM.

`COc1cc(C(=O)NCCCCCCCCNC(=O)c2ccc(NC(=O)[C@@H]3N[C@@H](CC(C)(C)C)[C@](C#N)(c4ccc(Cl)cc4F)[C@H]3c3cccc(Cl)c3F)c(OC)c2)ccc1NC(=O)[C@@H]1N[C@@H](CC(C)(C)C)[C@](C#N)(c2ccc(Cl)cc2F)[C@H]1c1cccc(Cl)c1F` [I-32] gave an IC50 (RS4-11, 96 h, duration 4 days) of 0.1 to 0.5 µM. In the case of `Cn1c(=O)n(C2CCC(=O)NC2=O)c2ccc(C#CCN3CCN(Cc4ccc(NC(=O)[C@@H]5NC6(CCCCC6)[C@@]6(C(=O)Nc7cc(Cl)ccc76)[C@H]5c5cccc(Cl)c5F)cc4)CC3)cc21` (some centres unmarked) [I-110], where the note is “RS4-11, 24 h, duration 1 day”, the IC50 was < 0.05 µM. With `COc1cc2c(cc1OC(C)C)C(c1ccc(Cl)cc1)N(c1ccc(N(C)C[C@H]3CC[C@H](N(C)C(=O)CCCCc4ccc5c(c4)n(C)c(=O)n5C4CCC(=O)NC4=O)CC3)cc1)C(=O)C2` (some centres unmarked) [I-168], where the note is “RS4-11, 24 h, duration 1 day”, the IC50 was < 0.05 µM. On to `Cn1c(=O)n(C2CCC(=O)NC2=O)c2ccc(C(=O)CC3CCN(C(=O)[C@H]4CC[C@H](NC(=O)[C@@H]5NC6(CCCCC6)[C@@]6(C(=O)Nc7cc(Cl)ccc76)[C@H]5c5cccc(Cl)c5F)CC4)CC3)cc21` (some centres unmarked) [I-94], for which, where the note is “RS4-11, 24 h, duration 1 day”, the half-maximal inhibitory concentration (IC50) was < 0.05 µM. As to `Cn1c(=O)n(C2CCC(=O)NC2=O)c2ccc(CC[C@H]3CC[C@H](N4CCC(NC(=O)[C@@H]5NC6(CCCCC6)[C@@]6(C(=O)Nc7cc(Cl)ccc76)[C@H]5c5cccc(Cl)c5F)CC4)CC3)cc21` (some centres unmarked) [I-171], the IC50 (RS4-11, 24 h, duration 1 day) is < 0.05 µM. As for `COc1cc2c(cc1OC(C)C)C(c1ccc(Cl)cc1)N(c1ccc(N(C)CCCCCCCc3ccc4c(c3)n(C)c(=O)n4C3CCC(=O)NC3=O)cc1)C(=O)C2` (centres unmarked) [I-208], the 50% inhibitory concentration (IC50) (RS4-11, 24 h, duration 1 day) was > 1 µM. Consider `Cn1c(=O)n(C2CCC(=O)NC2=O)c2ccc(C#CCCCCCN3CCC(NC(=O)[C@@H]4NC5(CCCCC5)[C@@]5(C(=O)Nc6cc(Cl)ccc65)[C@H]4c4cccc(Cl)c4F)CC3)cc21` (some centres unmarked) [I-224], for which the IC50 (RS4-11, 24 h, duration 1 day) is < 0.05 µM.

As to `COc1cc2c(cc1OC(C)C)C(c1ccc(Cl)cc1)N(c1ccc(N(C)C[C@H]3CC[C@H](N(C)CCCCCc4ccc5c(c4)n(C)c(=O)n5C4CCC(=O)NC4=O)CC3)cc1)C(=O)C2` (some centres unmarked) [I-85], the IC50 (RS4-11, 24 h, duration 1 day) was < 0.05 µM.

In the case of `CN(C(=O)c1ccc(NC(=O)[C@@H]2NC3(CCCCC3)[C@@]3(C(=O)Nc4cc(Cl)ccc43)[C@H]2c2cccc(Cl)c2F)cc1)C1CCN(Cc2cccc3c2n(C)c(=O)n3C2CCC(=O)NC2=O)CC1` (some centres unmarked) [I-63], under “RS4-11, 24 h, duration 1 day”, the IC50 is < 0.05 µM. Same read-out and setting: with `CN(CCCCCc1ccc2c(c1)n(C)c(=O)n2C1CCC(=O)NC1=O)Cc1ccc(NC(=O)[C@@H]2NC3(CCCCC3)[C@@]3(C(=O)Nc4cc(Cl)ccc43)[C@H]2c2cccc(Cl)c2F)c(F)c1` (some centres unmarked) [I-161] the figure was < 0.05 µM. On the same count and under the same terms, with `Cn1c(=O)n(C2CCC(=O)NC2=O)c2cccc(CCN3CC4(CCN(C[C@H]5CC[C@H](NC(=O)[C@@H]6NC7(CCCCC7)[C@@]7(C(=O)Nc8cc(Cl)ccc87)[C@H]6c6cccc(Cl)c6F)CC5)CC4)C3)c21` (some centres unmarked) [I-159] the figure was < 0.05 µM; with `Cn1c(=O)n(C2CCC(=O)NC2=O)c2ccc(CCCCCNC(=O)[C@H]3CC[C@H](N(C)C(=O)[C@@H]4NC5(CCCCC5)[C@@]5(C(=O)Nc6cc(Cl)ccc65)[C@H]4c4cccc(Cl)c4F)CC3)cc21` (some centres unmarked) [I-105], > 1 µM; with `Cn1c(=O)n(C2CCC(=O)NC2=O)c2ccc(CCCCCNC(=O)[C@@H]3CCC(NC(=O)[C@@H]4NC5(CCC(C)(C)CC5)[C@@]5(C(=O)Nc6cc(Cl)ccc65)[C@H]4c4ccnc(Cl)c4F)CO3)cc21` (some centres unmarked) [I-157], < 0.05 µM.

Regarding `Cn1c(=O)n(C2CCC(=O)NC2=O)c2ccc(C#CC3CCN(C[C@H]4CC[C@H](NC(=O)[C@@H]5NC6(CCC(C)(C)CC6)[C@@]6(C(=O)Nc7cc(Cl)ccc76)[C@H]5c5ccnc(Cl)c5F)CC4)CC3)cc21` (some centres unmarked) [I-149], the IC50 (RS4-11, 24 h, duration 1 day) was < 0.05 µM.

In the case of `CN1[C@@H](C(=O)Nc2ccc(C(=O)N3CCC(C#Cc4ccc5c(c4)n(C)c(=O)n5C4CCC(=O)NC4=O)CC3)cc2)[C@H](c2cccc(Cl)c2F)[C@]2(C(=O)Nc3cc(Cl)ccc32)C12CCCCC2` (some centres unmarked) [I-80], the IC50 (RS4-11, 24 h, duration 1 day) is < 0.05 µM. `Cc1ncsc1-c1ccc(CNC(=O)[C@@H]2C[C@@H](O)CN2C(=O)[C@@H](NC(=O)CCCCCCCNC(=O)c2ccc(NC(=O)[C@@H]3NC4(CCCCC4)[C@@]4(C(=O)Nc5cc(Cl)ccc54)[C@H]3c3cccc(Cl)c3F)cc2)C(C)(C)C)cc1` [I-12] showed a concentration for half-maximal inhibition (IC50) (RS4-11, 96 h, duration 4 days) of 0.05 to 0.1 µM. Take `Cn1c(=O)n(C2CCC(=O)NC2=O)c2ccc(C#CC3CN(C(=O)[C@H]4C[C@H](NC(=O)[C@@H]5NC6(CCCCC6)[C@@]6(C(=O)Nc7cc(Cl)ccc76)[C@H]5c5cccc(Cl)c5F)C4)C3)cc21` (stereo partly drawn) [I-89, (3′R,4'S,5′R)-6″-chloro-4′-(3-chloro-2-fluorophenyl)-N-((1r,3R)-3-(3-((1-(2,6-dioxopiperidin-3-yl)-3-methyl-2-oxo-2,3-dihydro-1H-benzo[d]imidazol-5-yl)ethynyl)azetidine-1-carbonyl)cyclobutyl)-2″-oxodispiro[cyclohexane-1,2′-pyrrolidine-3′,3″-indoline]-5′-carboxamide]: the IC50 (RS4-11, 24 h, duration 1 day) was < 0.05 µM. Regarding `CN(C(=O)[C@@H]1NC2(CCCCC2)[C@@]2(C(=O)Nc3cc(Cl)ccc32)[C@H]1c1cccc(Cl)c1F)c1ccc(C(=O)NCCCCCc2ccc3c(c2)n(C)c(=O)n3C2CCC(=O)NC2=O)cc1` (some centres unmarked) [I-96], for the setting “RS4-11, 24 h, duration 1 day”, the IC50 is > 1 µM. `Cn1c(=O)n(C2CCC(=O)NC2=O)c2ccc(CCCCCNC(=O)c3ccc(NC(=O)[C@@H]4NC5(CCCCC5)[C@@]5(C(=O)Nc6cc(Cl)ccc65)[C@H]4c4cccc(Cl)c4F)c4c3OCCO4)cc21` (some centres unmarked) [I-163]: the IC50 (RS4-11, 24 h, duration 1 day) was < 0.05 µM. As to `Cn1c(=O)n(C2CCC(=O)NC2=O)c2cccc(C3CCN(Cc4ccc(NC(=O)[C@@H]5NC6(CCCCC6)[C@@]6(C(=O)Nc7cc(Cl)ccc76)[C@H]5c5cccc(Cl)c5F)cc4)CC3)c21` (some centres unmarked) [I-115], the IC50 (RS4-11, 24 h, duration 1 day) was < 0.05 µM. As to `CC(C)[C@@H](CS(=O)(=O)C(C)C)N1C(=O)[C@@](C)(CC(=O)Nc2ccc(C(=O)NCCCOCCCN)cc2)C[C@H](c2cccc(Cl)c2)[C@H]1c1ccc(Cl)cc1` [I-5, N-[3-(3-aminopropoxy)propyl]-4-[[2-[(3R,5R,6S)-5-(3-chlorophenyl)-6-(4-chlorophenyl)-1-[(1S)-1-(isopropylsulfonylmethyl)-2-methyl-propyl]-3-methyl-2-oxo-3-piperidyl]acetyl]amino]benzamide], the IC50 (RS4-11, 96 h, duration 4 days) is > 1 µM.
